Tests used:
[1] = test system: Jurkat (clone E6-1) cells, NFAT luciferase reporter; test: Jurkat Reporter Assay (NFAT Luciferase); assay type: cell-based; settings: Homo sapiens, anti-CD3 stimulation, 6 hr, read-out: Jurkat NFAT EC50
[2] = target: Recombinant human Cbl-b (aa 36-427) (Homo sapiens (Human), UniProt Q13191); test: Cbl-b Biochemical Assay (TR-FRET); settings: read-out: TR-FRET hCbl-b IC50
Summary of the method: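 Two-step TR-FRET: 6 nM biotinylated Cbl-b preincubated 30-60 min with compound, then 60 min at RT with 1-2.5 nM Src-Zap70 and 0.5 mM ATP in HEPES pH 7.0 buffer, 1% DMSO. Stopped with 5 mM EDTA plus 100 nM UBE2D2-Ub-FL-BODIPY and 1 nM streptavidin-Tb, 60 min; 520 nm signal; IC50 from 4-parameter fit.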

[3] = target: Recombinant human c-Cbl (aa 47-435) (Homo sapiens (Human), UniProt P22681); test: c-Cbl Biochemical Assay (TR-FRET)
Summary of the method: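 Biotinylated c-Cbl (6 nM) preincubated 30 min RT with compound, then reacted 60-90 min with Src-Zap70 (2.5-10 nM) and 0.5 mM ATP, pH 7.0 HEPES buffer. Stopped with EDTA; 100 nM Bodipy-ubiquitinated UBE2D2 binding read by TR-FRET after 60 min; IC50 from 4-parameter fit.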

Recombinant human Cbl-b (aa 36-427), sequence (Q13191 36-427): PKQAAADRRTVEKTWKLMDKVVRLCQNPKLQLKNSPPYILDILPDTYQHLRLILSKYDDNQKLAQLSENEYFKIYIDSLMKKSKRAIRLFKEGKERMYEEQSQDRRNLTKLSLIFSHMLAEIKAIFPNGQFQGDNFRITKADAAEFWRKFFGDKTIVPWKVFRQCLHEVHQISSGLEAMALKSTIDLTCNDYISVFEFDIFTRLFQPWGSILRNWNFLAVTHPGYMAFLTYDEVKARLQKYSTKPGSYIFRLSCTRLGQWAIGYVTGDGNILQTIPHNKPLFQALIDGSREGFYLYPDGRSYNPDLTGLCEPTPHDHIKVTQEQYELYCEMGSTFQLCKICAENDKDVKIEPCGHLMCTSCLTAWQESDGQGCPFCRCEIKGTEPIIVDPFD
Recombinant human c-Cbl (aa 47-435), sequence (P22681 47-435): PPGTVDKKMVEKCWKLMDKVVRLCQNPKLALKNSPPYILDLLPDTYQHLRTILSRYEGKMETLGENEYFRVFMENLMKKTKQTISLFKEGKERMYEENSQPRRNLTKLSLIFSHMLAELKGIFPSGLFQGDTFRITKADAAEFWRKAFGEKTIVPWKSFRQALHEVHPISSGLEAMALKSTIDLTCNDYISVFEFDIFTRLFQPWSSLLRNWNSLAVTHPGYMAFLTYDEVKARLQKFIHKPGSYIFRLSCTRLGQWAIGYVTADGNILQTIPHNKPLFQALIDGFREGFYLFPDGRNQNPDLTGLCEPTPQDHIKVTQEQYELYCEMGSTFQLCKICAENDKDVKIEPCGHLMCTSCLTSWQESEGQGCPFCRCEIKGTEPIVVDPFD

| SMILES | EC50 [1] [µM] | IC50 [2] [µM] | IC50 [3] [µM] |
| --- | --- | --- | --- |
| CCOc1cc(N2Cc3c(cccc3C(F)(F)F)C2=O)cc(C2(Cc3nncn3C)COC2)c1 [AHM-12, 2-(3-Ethoxy-5-[3-[(4-methyl-1,2,4-triazol-3-yl)methyl]oxetan-3-yl]phenyl)-4-(trifluoromethyl)-3H-isoindol-1-one] | 1 to 10 | 0.2 to 1 | – |
| CCNc1cc(-c2c(-c3nncn3C)cnn2C)cc(N2Cc3c(cc(CN(C)CC4(OC)CCC4)cc3C(F)(F)F)C2=O)n1 [AEK-3, 2-(6-(Ethylamino)-4-(1-methyl-4-(4-methyl-4H-1,2,4-triazol-3-yl)-1H-pyrazol-5-yl)pyridin-2-yl)-6-((((1-methoxycyclobutyl)methyl)(methyl)amino)methyl)-4-(trifluoromethyl)isoindolin-1-one] | 0.2 to 1 | ≤ 0.2 | – |
| COc1ccc2c(c1)CN(c1cc(-c3ccccc3-c3nncn3C)cc(C3CC3)n1)C2=O [AER-1] | 10 to 50 | ≤ 0.2 | – |
| CCNc1cc(-c2nn(CC(C)C)cc2-c2nncn2C)cc(N2Cc3c(cccc3C(F)(F)F)C2=O)n1 [AGX-8, 2-[6-(Ethylamino)-4-[4-(4-methyl-1,2,4-triazol-3-yl)-1-(2-methylpropyl)pyrazol-3-yl]pyridin-2-yl]-4-(trifluoromethyl)-3H-isoindol-1-one] | 10 to 50 | 10 to 50 | – |
| Cc1ccc2c(c1)C(=O)N(c1cc(-c3ccc(F)cc3-c3nncn3C)cc(C(C)C)n1)C2 [AFY-1, 2-(4-(4-fluoro-2-(4-methyl-4H-1,2,4-triazol-3-yl)phenyl)-6-isopropylpyridin-2-yl)-6-methylisoindolin-1-one] | 10 to 50 | 1 to 10 | – |
| Cn1cnnc1-c1ccccc1-c1cccc(N2Cc3c(cc(CO[C@@H]4CCC[C@H]4O)cc3C(F)(F)F)C2=O)c1 [ADL-4, 6-({[(1R,2R)-2-Hydroxycyclopentyl]oxy}methyl)-2-[2′-(4-methyl-1,2,4-triazol-3-yl)-[1,1′-biphenyl]-3-yl]-4-(trifluoromethyl)-3H-isoindol-1-one] | 1 to 10 | ≤ 0.2 | – |
| CCNc1cc(-c2c(-c3nncn3C)cnn2C)cc(N2Cc3ccc(CNCC4(O)CCC4)cc3C2=O)n1 [AEE-2, 2-[6-(Ethylamino)-4-[2-methyl-4-(4-methyl-1,2,4-triazol-3-yl)pyrazol-3-yl]pyridin-2-yl]-6-({[(1-hydroxycyclobutyl)methyl]amino}methyl)-3H-isoindol-1-one] | 0.2 to 1 | ≤ 0.2 | – |
| CCNc1cc(-c2cc(C#N)ccc2-c2nncn2C)cc(N2Cc3c(cccc3C(F)(F)F)C2=O)n1 [ADS-6, 3-[2-(Ethylamino)-6-[1-oxo-4-(trifluoromethyl)-3H-isoindol-2-yl]pyridin-4-yl]-4-(4-methyl-1,2,4-triazol-3-yl)benzonitrile] | 1 to 10 | ≤ 0.2 | – |
| CCNc1cc(-c2c(-c3nncn3C)cnn2C)cc(N2Cc3c(cc(COCC(C)(C)O)cc3C(F)(F)F)C2=O)n1 [ADY-2, 2-[6-(Ethylamino)-4-[2-methyl-4-(4-methyl-1,2,4-triazol-3-yl)pyrazol-3-yl]pyridin-2-yl]-6-[(2-hydroxy-2-methylpropoxy)methyl]-4-(trifluoromethyl)-3H-isoindol-1-one] | 0.2 to 1 | ≤ 0.2 | – |
| CCNc1cc(-c2c(-c3nncn3C)cnn2C)cc(N2Cc3c(cc(COC4CCN(C)CC4)cc3C(F)(F)F)C2=O)n1 [ADA-2, 2-[6-(Ethylamino)-4-[2-methyl-4-(4-methyl-1,2,4-triazol-3-yl)pyrazol-3-yl]pyridin-2-yl]-6-{[(1-methylpiperidin-4-yl)oxy]methyl}-4-(trifluoromethyl)-3H-isoindol-1-one] | 1 to 10 | – | – |
| Cn1cnnc1-c1cc(C#N)ccc1-c1cc(C2CC2)nc(N2Cc3c(F)cc(CN4C[C@@H]5C[C@H]4CO5)cc3C2=O)c1 [AKR-3, 4-(2-Cyclopropyl-6-{4-fluoro-6-[(1S,4S)-2-oxa-5-azabicyclo[2.2.1]heptan-5-ylmethyl]-1-oxo-3H-isoindol-2-yl}pyridin-4-yl)-3-(4-methyl-1,2,4-triazol-3-yl)benzonitrile] | – | ≤ 0.2 | ≤ 0.2 |
| Cn1cnnc1-c1cc(C#N)ccc1-c1cc(C2CC2)nc(N2Cc3ccc(C(C)(C)NCC4CCC4)cc3C2=O)c1 [AOS-2, 4-[2-(6-{2-[(Cyclobutylmethyl)amino]propan-2-yl}-1-oxo-3H-isoindol-2-yl)-6-cyclopropylpyridin-4-yl]-3-(4-methyl-1,2,4-triazol-3-yl)benzonitrile] | – | ≤ 0.2 | ≤ 0.2 |
| COCCOCc1ccc2c(c1)C(=O)N(c1cc(-c3ccc(C#N)cc3-c3nncn3C)cc(C3CC3)n1)C2 [AIQ-2, 4-(2-Cyclopropyl-6-(6-((2-methoxyethoxy)methyl)-1-oxoisoindolin-2-yl)pyridin-4-yl)-3-(4-methyl-4H-1,2,4-triazol-3-yl)benzonitrile] | – | ≤ 0.2 | ≤ 0.2 |
| Cn1cnnc1-c1cc(Cl)ccc1-c1cc(C2CC2)nc(N2Cc3ccc(CO)cc3C2=O)c1 [AIU-1, 2-(4-(4-Chloro-2-(4-methyl-4H-1,2,4-triazol-3-yl)phenyl)-6-cyclopropylpyridin-2-yl)-6-(hydroxymethyl)isoindolin-1-one] | – | ≤ 0.2 | ≤ 0.2 |
| CO[C@H](C)CNCc1ccc2c(c1)C(=O)N(c1cc(-c3ccc(C#N)cc3-c3nncn3C)cc(C3CC3)n1)C2 [AID-2, 4-{2-Cyclopropyl-6-[6-({[(2R)-2-methoxypropyl]amino}methyl)-1-oxo-3H-isoindol-2-yl]pyridin-4-yl}-3-(4-methyl-1,2,4-triazol-3-yl)benzonitrile] | – | ≤ 0.2 | ≤ 0.2 |
| Cn1cnnc1-c1cc(C#N)ccc1-c1cc(C2CC2)nc(N2Cc3c(F)cc(CN4CCC[C@H]4CF)cc3C2=O)c1 [APA-2, 4-[2-Cyclopropyl-6-(4-fluoro-6-{[(2S)-2-(fluoromethyl)pyrrolidin-1-yl]methyl}-1-oxo-3H-isoindol-2-yl)pyridin-4-yl]-3-(4-methyl-1,2,4-triazol-3-yl)benzonitrile] | – | ≤ 0.2 | ≤ 0.2 |
| Cn1cnnc1-c1cc(C#N)ccc1-c1cc(C2CC2)nc(N2Cc3c(F)cc(CN[C@]4(C)COC[C@@H]4O)cc3C2=O)c1 (relative stereo) [AOH-1, rel-4-{2-Cyclopropyl-6-[4-fluoro-6-({[(3R,4R)-4-hydroxy-3-methyloxolan-3-yl]amino}methyl)-1-oxo-3H-isoindol-2-yl]pyridin-4-yl}-3-(4-methyl-1,2,4-triazol-3-yl)benzonitrile] | – | ≤ 0.2 | ≤ 0.2 |
| Cn1cnnc1-c1cc(C#N)ccc1-c1cc(C2CC2)nc(N2Cc3ccc(CNC4CC4)cc3C2=O)c1 [ALQ-2, 4-(2-Cyclopropyl-6-{6-[(cyclopropylamino)methyl]-1-oxo-3H-isoindol-2-yl}pyridin-4-yl)-3-(4-methyl-1,2,4-triazol-3-yl)benzonitrile] | – | ≤ 0.2 | ≤ 0.2 |
| COC[C@H](C)NCc1cc(F)c2c(c1)C(=O)N(c1cc(-c3ccc(C#N)cc3-c3nncn3C)cc(C3CC3)n1)C2 [AKG-1, 4-{2-Cyclopropyl-6-[4-fluoro-6-({[(2S)-1-methoxypropan-2-yl]amino}methyl)-1-oxo-3H-isoindol-2-yl]pyridin-4-yl}-3-(4-methyl-1,2,4-triazol-3-yl)benzonitrile] | – | ≤ 0.2 | ≤ 0.2 |
| CNCCOCc1ccc2c(c1)C(=O)N(c1cc(-c3ccc(C#N)cc3-c3nncn3C)cc(C3CC3)n1)C2 [AIY-2, 4-[2-Cyclopropyl-6-(6-{[2-(methylamino)ethoxy]methyl}-1-oxo-3H-isoindol-2-yl)pyridin-4-yl]-3-(4-methyl-1,2,4-triazol-3-yl)benzonitrile] | – | ≤ 0.2 | ≤ 0.2 |
| COC[C@@H](C)NCc1cc(F)c2c(c1)C(=O)N(c1cc(-c3ccc(C#N)cc3-c3nncn3C)cc(C3CC3)c1)C2 [ALG-3, 3′-cyclopropyl-5′-[4-fluoro-6-({[(2R)-1-methoxypropan-2-yl]amino}methyl)-1-oxo-3H-isoindol-2-yl]-2-(4-methyl-1,2,4-triazol-3-yl)-[1,1′-biphenyl]-4-carbonitrile] | – | ≤ 0.2 | ≤ 0.2 |
| CN(Cc1cc(F)c2c(c1)C(=O)N(c1cc(-c3ccc(C#N)cc3-c3nncn3C)cc(C3CC3)n1)C2)CC1CCC1 [AKT-1, 4-[2-(6-{[(Cyclobutylmethyl)(methyl)amino]methyl}-4-fluoro-1-oxo-3H-isoindol-2-yl)-6-cyclopropylpyridin-4-yl]-3-(4-methyl-1,2,4-triazol-3-yl)benzonitrile] | – | ≤ 0.2 | ≤ 0.2 |
| CN(Cc1ccc2c(c1)C(=O)N(c1cc(-c3ccc(C#N)cc3-c3nncn3C)cc(C3CC3)n1)C2)C1CCC1 [AOA-1] | – | ≤ 0.2 | ≤ 0.2 |
| Cn1cnnc1-c1cc(C#N)ccc1-c1cc(C2CC2)nc(N2Cc3ccc(CNC(C)(C)C4CCC4)cc3C2=O)c1 [AOM-2, 4-[2-(6-{[(2-Cyclobutylpropan-2-yl)amino]methyl}-1-oxo-3H-isoindol-2-yl)-6-cyclopropylpyridin-4-yl]-3-(4-methyl-1,2,4-triazol-3-yl)benzonitrile] | – | ≤ 0.2 | ≤ 0.2 |
| CCOc1cc(-c2ccc(F)cc2-c2nncn2C)cc(N2Cc3c(OC)cc(CNCC4(O)CCC4)cc3C2=O)n1 [AIJ-2, 2-{6-Ethoxy-4-[4-fluoro-2-(4-methyl-1,2,4-triazol-3-yl)phenyl]pyridin-2-yl}-6-({[(1-hydroxycyclobutyl)methyl]amino}methyl)-4-methoxy-3H-isoindol-1-one] | – | ≤ 0.2 | ≤ 0.2 |

— patent publication US12325697B2 (Nimbus Clio, Inc., priority 2021, dated 2025)
